Laboratory results from US6893829B2, “Human leukocyte 12-lipoxygenase and its role in the pathogenesis of disease states” (City of Hope, priority 1992, dated 2005).

Assays:
[1] = system: VEGF in vascular smooth muscle cells (VSMC); assay: VEGF protein, mRNA and secretion in VSMC (Western, Northern, EIA); assay type: cell-based, Porcine and human
Method: In addition to the work reflected in FIGS. 8-10, it has now been discovered that AII, 12-HETE and hyperglycemia (HG) increase VEGF production in vascular smooth muscle cells (VSMC). Porcine and human VSMC were cultured for at least two passages under normal glucose (NG, 5.5 mM) or under HG conditions. VEGF protein expression was determined by Western blotting and VEGF mRNA by Northern blots. HG alone increased the level of VEGF mRNA (2.8-fold) and protein (3.2-fold). […] In addition, HG increased the secretion of VEGF into the medium as measured by a specific EIA (56.2±4 ng/ml NG vs 73±5 HG, p<0.02).

[2] = system: leukocyte 12-LO protein in HSMC; assay: 12-LO protein expression in HSMC (Western immunoblotting); assay type: cell-based, human
Method: FIGS. 4A and 4B illustrate the regulation of leukocyte 12-LO protein expression by AII in HSMC. FIG. 4A is an immunoblot showing regulation by AII. FIG. 4B is a bar graph representation of densitometric analysis of immunoblot in FIG. 4A. Cells were grown in medium 199 containing 20% FBS and serum-depleted for 24 hours by placing in medium 199 containing 0.4% FBS and 0.2% BSA. Cells were treated with AII at the concentration of 2×10^−7 mol/L for 24 to 48 hours. Cells were washed with PBS and harvested by scraping. Cell pellets were lysed and cytosol fractions were electrophoresed. […]
SDS polyacrylamide gel electrophoresis (10% running gel, 4% stacking gel) was performed according to the method of Laemmli (24). […] Nonspecific binding was evaluated using normal rabbit serum. Western blots were quantitated using a computerized video densitometer (Applied Imagining, Santa Clara, Calif.; Lynx DNA vision) and values expressed as arbitrary absorbance units.
To examine whether AII induces the 12-LO enzyme expression in HSMC, cells were treated with AII at the concentration of 2×10^−7 mol/L for 24 or 48 hours. […] A distinct band was detected with a molecular weight of nearly 72 kD which is the reported molecular weight of the porcine leukocyte-type of 12-LO (FIG. 4). […]

[3] = AII 10^−7M, 4 hours, cells cultured in HG

Angiotensin II (DRVYIHPF; Angiotensin-2; UniProt P01019 25-32, looked up) [AII, peptide hormone, added to cells as stimulus]
increase in VEGF secretion (EIA) [1]: 1.24 fold
VEGF mRNA expression increase [1, 3]: 1.4 fold
VEGF protein expression increase [1, 3]: 2.2 fold
increase in 12-LO protein expression ([2]; AII 2×10^−7 mol/L, 24 hour, serum free media): seven
12-LO expression induction ([2]; AII, 48 hours, data not shown): 4-7 fold
